Reference: patent US10226435B2, “Compositions and methods for restoring the stratum corneum and treating dermatological diseases” (New York University, priority 2011, dated 2019)

Columns and labels:
[1] = test system: human transplanted pancreatic adenocarcinomas; conditions: growth of human transplanted pancreatic adenocarcinomas; cited from earlier work
[2] = test system: mouse skin gene expression; assay: Gene expression microarray analysis of mouse skin; format: in vivo; conditions: for loricrin and filaggrin and vascular endothelial growth factor (VEGF) genes / matrix metalloproteinases: ingestion, animal models; for inflammation genes induced by UVR: per os daily for 4 days in 30 microL droplets prior to irradiation
Method: Animals for the histology and microarray analysis were euthanized 24 hours after 4 days of terpene pre-feed and the UVR exposure.
Gene expression microarray analysis was performed as follows: RNA was extracted from a 0.1 g sample of mouse skin and an equal quantity of keratinocytes by using the TRIZOL reagent (Invitrogen, Carlsbad, Calif., USA) according to the manufacture's instructions and 200 μg of total RNA was used for the isolation of poly A+mRNA by using Oligotex mRNA mini columns (QIAGEN, Valencia, Calif., USA). The final centrifugation was performed after the incubation with 1/10 volume of 3.0 M NaOAc, 2.5 volumes of ethanol and 1 μl glycogen (Boehringer Mannheim GmbH, Mannheim, Germany) at −20° C. overnight. Then the pellet was resuspended in diethylpyrocarbonate (DEPC)-treated water. RNA was labeled with biotin and hybridized to a Mouse genome 430_2 GeneChip® microarray (Affymetrix, Inc. Santa Clara, Calif., USA). Data from the Affymetrix mouse expression array chip were imported into the BRB-ArrayTools Version 3.3.0 developed by the Biometric Research Branch of the U.S. National Cancer Institute for normalization and analysis. […] A value of P≤0.001 was chosen as statistically significant. […] For these calculations the entire list of genes on the Affymetrix (mouse 430_2) microarray was used as the reference list.
Mice were treated with either UVR or UVR+beta-damascenone, and samples of tissue were removed from the dorsal skin for RNA extraction and analysis on an Affymetrix Microarray System utilizing mouse whole genome array chips Affy 430_2. The UVR sample served as the control in this preliminary experiment.

[3] = test system: stratum corneum of Skh1 mouse skin; assay: Thickness of nucleated keratinocyte portion of epidermis versus stratum corneum, H&E histology; format: in vivo
Description: 1. Skin and epidermal thickness (as measured by histology);

[4] = in vivo; cited from earlier work
skin [5] = conditions: in vivo; cited from earlier work
skin [6] = conditions: in vivo; cited from earlier work; remark: listed apart in the source
[7] = test system: skin of SKH1 hairless mice; assay: Sunburn (erythema) prevention by terpenes in UVR-exposed hairless mice; conditions: 4 daily 30 microL droplets per os before 15 minute exposure to 3.0 kJ/m2 UVR
Method: All experiments were performed with female hairless mice (SKH1) utilizing solar spectrum ultraviolet radiation (UVR). Each experiment was performed in triplicate including controls and UVR-exposed mice and included a total of 22 mice per experiment for a total of 66 mice. The protocol included untreated mice, UVR-irradiated mice as controls for the terpene treatments, UVR+terpene mice and terpene-only mice.
Four solar simulating FS-20 fluorescent lamps were used to deliver 3 kJ/m^2 measured by a calibrated International Light UV radiometer at the lamp distance between 20 to 24 cm. The UVR dose was selected to be just above the minimal erythemal dose for producing a ‘sunburn’ reaction in mouse skin (this is very similar to the minimal erythemal dose of fair-skinned humans).
Each terpene was given to each mouse per os (by mouth) in 15-30 μL droplets (˜15-30 μg) via micropipette once each day for 4 consecutive days prior to and/or subsequent to UVR exposure. Animals were observed and photographed every 24 hours for a period of 6-7 days after the irradiation. Each terpene was administered in pure form.
The UVR exposure of 3 kJ/m^2 was delivered seven (7) days after the last dose was administered. The animals were observed and photographed. […] Liponeate, a triglyceride fraction of coconut oil was used as a diluent. Concentration 1, 10 and 100% were tested. […]

[8] = test system: dorsal skin of hairless mice; assay: β-damascenone-induced sunburn protection study in hairless mice; format: in vivo, mouse; conditions: read 5 days later
Description: The present experiment will be performed for evaluating the effectiveness and persistence of sunburn protection afforded by different doses and exposure regimens of a test terpene, β-damascenone. Female SKH-1 strain mice, obtained from Charles River Breeding Labs, Wilmington, Mass., will be fed per os various amounts of the terpene as indicated in the following Tables 4 and 5.

breast cancer = conditions: rats, ionizing radiation or DMBA; cited from earlier work
skin inflammation = conditions: topical preventive treatment 3 days at 10 mg/kg/day before induction; cited from earlier work
colon cancer = conditions: rats, 1,2-dimethylhydrazine induced, 8 mg/kg, p<0.01; cited from earlier work
[9] = test system: inflammation-relevant gene expression; conditions: rat skin, x-rays; cited from earlier work
[10] = UVR+beta-damascenone relative to UVR only
[11] = Group 2, 20 μL ×1 oral, section 1 d after final administration, total 20 μL
[12] = Group 3, 10 μL ×4 oral, section 1 d after final administration, total 40 μL
[13] = Group 4, 20 μL ×4 oral, section 1 d after final administration, total 80 μL
[14] = Group 5, 80 μL ×1 oral, section 1 d after final administration, total 80 μL
[15] = Group 6, 20 μL ×1 oral, section 5 d after final administration, total 20 μL
[16] = Group 7, 10 μL ×4 oral, section 5 d after final administration, total 40 μL
[17] = Group 8, 80 μL ×1 oral, section 5 d after final administration, total 80 μL
[18] = Group 9, 20 μL ×4 oral, section 5 d after final administration, total 80 μL
[19] = Group 10, 10 μL ×4 oral, section 12 d after final administration, total 40 μL
[20] = Group 11, 20 μL ×4 oral, section 12 d after final administration, total 80 μL
[21] = day 5 after the exposures were completed
[22] = Group 2, 20 uL × 4 by feeding tube, UVR 1.5 kJ/m^2 5 days after final dose
[23] = Group 3, 10 uL × 4 by feeding tube, UVR 1.5 kJ/m^2 5 days after final dose
[24] = Group 4 (replication of group 2), 20 uL × 4 by feeding tube, UVR 1.5 kJ/m^2 5 days after final dose
[25] = Group 5, 10 uL × 1 by feeding tube, UVR 1.5 kJ/m^2 5 days after dose
[26] = Group 6, 20 uL × 1 by feeding tube, UVR 1.5 kJ/m^2 5 days after dose
[27] = Group 7, 40 uL × 1 by feeding tube, UVR 1.5 kJ/m^2 5 days after dose
[28] = Groups 2 + 4 combined, 20 uL × 4, UVR 1.5 kJ/m^2 5 days after final dose

Compound: CC(C)=CCC/C(C)=C/CO [Geraniol]
- effectiveness relative to perillyl alcohol [1]: about 5 fold

Compound: C/C=C/C(=O)C1=C(C)C=CCC1(C)C [beta-damascenone]
- inflammation-relevant genes [2, 10]: strongly down-regulated
- number of gene categories significantly (p<0.05) down-regulated [2, 10]: 13
- only significantly (p<0.05) altered up-regulated category at level 4 of Gene Ontology Tree [2, 10]: epidermal cell differentiation
- loricrin and filaggrin and vascular endothelial growth factor (VEGF) genes [2]: upregulation
- matrix metalloproteinases [2]: downregulation
- inflammation genes induced by UVR [2]: blocked
- Living Epidermis Thickness ([3]; Average (Groups 2-11)): 34.6 arbitrary units
- Stratum Corneum Thickness ([3]; Average (Groups 2-11)): 21.0 arbitrary units
- Living Epidermis Thickness [3, 11]: 35.0 arbitrary units
- Stratum Corneum Thickness [3, 11]: 20.0 arbitrary units
- Living Epidermis Thickness [3, 12]: 37.0 arbitrary units
- Stratum Corneum Thickness [3, 12]: 15.3 arbitrary units
- Living Epidermis Thickness [3, 13]: 36.0 arbitrary units
- Stratum Corneum Thickness [3, 13]: 17.8 arbitrary units
- Living Epidermis Thickness [3, 14]: 36.0 arbitrary units
- Stratum Corneum Thickness [3, 14]: 16.3 arbitrary units
- Living Epidermis Thickness [3, 15]: 38.5 arbitrary units
- Stratum Corneum Thickness [3, 15]: 37.0 arbitrary units
- Living Epidermis Thickness [3, 16]: 40.2 arbitrary units
- Stratum Corneum Thickness [3, 16]: 20.2 arbitrary units
- Living Epidermis Thickness [3, 17]: 36.2 arbitrary units
- Stratum Corneum Thickness [3, 17]: 25.5 arbitrary units
- Living Epidermis Thickness [3, 18]: 32.5 arbitrary units
- Stratum Corneum Thickness [3, 18]: 21.2 arbitrary units
- Living Epidermis Thickness [3, 19]: 30.7 arbitrary units
- Stratum Corneum Thickness [3, 19]: 18.7 arbitrary units
- Living Epidermis Thickness [3, 20]: 23.3 arbitrary units
- Stratum Corneum Thickness [3, 20]: 21.7 arbitrary units
- nucleated keratinocytes in the epidermis [3, 21]: no corresponding increase
- thickness of the stratum corneum [3, 21]: highly significant increases
- stratum corneum thickness (FIG. 4) ([3]; mouse, in vivo): consistently thickened
- LD50 [4]: greater than 2.0 g/kg
- phototoxicity or photoallergenity (skin [5]): No phototoxicity or photoallergenity
- skin irritation (skin [6]): No skin irritation
- cutaneous inflammation and erythema after UVR [7]: blocked
- Areas with no sunburn [8, 22]: 11.0
- Areas with sunburn [8, 22]: 1.0
- Areas with no sunburn [8, 23]: 6.0
- Areas with sunburn [8, 23]: 2.0
- Areas with no sunburn [8, 24]: 8.0
- Areas with sunburn [8, 24]: 0.0
- Areas with no sunburn [8, 25]: 7.0
- Areas with sunburn [8, 25]: 5.0
- Areas with no sunburn [8, 26]: 10.0
- Areas with sunburn [8, 26]: 2.0
- Areas with no sunburn [8, 27]: 3.0
- Areas with sunburn [8, 27]: 1.0
- Areas with no sunburn [8, 28]: 19.0
- Areas with sunburn [8, 28]: 1.0

Compound: C=C(C)[C@H]1CC=C(C)CC1 [d-limonene]
- initiation of breast cancer (breast cancer): almost completely prevented

Compound: C=C(C)[C@@H]1CCC2=CC(=O)C[C@@H](C)[C@]2(C)C1 [nootkatone]
- loricrin and filaggrin and vascular endothelial growth factor (VEGF) genes [2]: upregulation
- matrix metalloproteinases [2]: downregulation
- inflammation genes induced by UVR [2]: blocked
- cutaneous inflammation and erythema after UVR [7]: blocked

Compound: C=C(C)[C@@H]1CC=C(CO)CC1 [perillyl alcohol, reference compound]
- effect on skin inflammation (skin inflammation): significant effect
- initiation of breast cancer (breast cancer): almost completely prevented

Compound: Oc1ccc(C=Cc2cc(O)cc(O)c2)cc1 [resveratrol]
- inhibition of colon cancer (colon cancer): 67%

Compound: vitamin A
- inflammation-relevant gene expression alterations blocked [9]: about 80%
